Measured values as given in publication PMC6650083, “Structure and functional analysis of a bacterial adhesin sugar-binding domain” (PLoS ONE, 2019).
Several values for one entry are separate records, joined by “and”; a condition that tells them apart may be missing. Equal entries are not always repeated. Where two headings read alike, the source gives them in different places.

How the values were obtained:
MhPA14 [1] = biological target: T1, MhPA14 (Marinobacter hydrocarbonoclasticus, UniProt A0ABF7PGZ6); test: Dextran-based (Superdex 200 resin) competitive binding assay
T1 sequence (A0ABF7PGZ6 entry or part of it): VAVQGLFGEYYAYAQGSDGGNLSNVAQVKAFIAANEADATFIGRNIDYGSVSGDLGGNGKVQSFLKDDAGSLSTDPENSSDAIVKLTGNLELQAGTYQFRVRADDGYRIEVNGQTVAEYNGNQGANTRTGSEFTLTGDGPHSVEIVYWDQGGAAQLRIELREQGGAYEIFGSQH
Procedure: Superdex 200 (S200) resin stored in 20% ethanol was washed twice in Protein Buffer using 6600 xg centrifugation. A millilitre of 1 mg/mL MhPA14 fused N-terminally to GFP, named GFP_MhPA14 (S1 Fig), was incubated with 300 μL of equilibrated S200 resin. Following 30 sec of vortexing and 2 min of incubation with slight mixing (nutation), the solution was centrifuged at 6600 xg for 2.5 min and the supernatant discarded. Protein buffer (1 mL) was added to the tube, and the process of mixing followed by centrifugation was repeated. The A280 of the resulting supernatant was taken to account for the minimal amount of non-sugar-related protein disassociation from the resin, and was used as a baseline reading. The supernatant was then returned into its original resin mixture tube with the addition of 1.67 μmoles (3 μL of 555 mM) of saccharide. […] After reading the A280 of the supernatant, the above process was repeated for seven tandem saccharide additions of 1.67 μmoles, as well as a final 5-μmole addition. […]
Attempts to solve MhPA14 structures with other sugars bounds–whether by soaking or co-crystallization–were fruitless. […] The amount of GFP-tagged MhPA14 released from the resin upon each sugar addition was measured using absorbance at 280 nm, which was plotted against concentration of free sugar to produce semi-quantitative binding curves (Fig 8). […]

MhPA14 [2] = biological target: T1, MhPA14; test: Fungal, bacterial and plant polysaccharide array set 2 (Imperial College) probed with GFP_MhPA14; format: binding; settings: 50 μg/mL GFP_MhPA14, anti-GFP antibody detection, average of duplicates
Procedure: The second array was screened at the Carbohydrate Microarray Facility (Glycosciences Laboratory, Imperial College). GFP_MhPA14 (50 μg/mL) was exposed to the ‘Fungal, bacterial and plant polysaccharide array set 2’, which contained duplicates of 20 saccharide probes extracted from a variety of organisms. An Alexa Fluora 647-tagged anti-GFP antibody was used for detection, and the duplicates were averaged to give the final RFU values.

MhPA14 [3] = biological target: T1, MhPA14; test: Isothermal titration calorimetry (ITC); format: binding; settings: 30°C; for Kd: 400 μM MhPA14, 8 mM sugar
Procedure: Isothermal calorimetric titration (ITC) measurements were performed using a MicroCal VP-ITC calorimeter (Malvern) set at 30°C. […] Sugars were added from the computer-controlled rotating syringe (400 RPM) at 5-min intervals into the MhPA14 solution for a total of 50 injections. The data were analyzed by Origin software Version 5.0 (Malvern).

MhPA14 [4] = biological target: T1, MhPA14; test: Superdex 200 column affinity test (gradient elution of bound MhPA14); format: binding; settings: increasing gradient, 0-55 mM glucose or 0-5 mM EDTA over 45 min
Procedure: A Superdex 200 10/300 GL column (GE Healthcare) was used to probe the resin-binding ability of MhPA14. Approximately 1 mg of MhPA14 was loaded onto the column and washed with 3 column volumes of Protein Buffer. An increasing gradient of either glucose or EDTA was then implemented, rising from 0 mM– 55 mM glucose or 0 mM– 5 mM EDTA over 45 min.

EpA1 = biological target: EpA1; set-up: method as in PMID 22349222; settings: EpA1 and its sugar of choice; cited from earlier work
[5] = fucose and glucose are averages of triplicate runs, read-out: Kd
[6] = fucose and glucose are averages of triplicate runs

| Molecule | Affinity for MhPA14 on polysaccharide array (MhPA14 [2]) | Kd (MhPA14 [3]; [5]) | N (calculated stoichiometry) (MhPA14 [3]; [6]) | further results |
| --- | --- | --- | --- | --- |
| CC(=O)N[C@@H]1[C@@H](O)[C@@H](O)[C@@H](CO)O[C@@H]1O [N-acetylgalactosamine] |  |  |  | Kdapp (apparent dissociation constant) (MhPA14 [1]; GFP_MhPA14 displaced from Superdex 200 resin by free sugar, A280 readout, triplicate, semi-quantitative): Non-binding; Binding in competitive binding assay (MhPA14 [1]; GFP_MhPA14 on Superdex 200 resin): unable to bind MhPA14 at all |
| dextran | modest affinities |  |  |  |
| C[C@H](O)[C@@H](O)[C@@H](O)[C@H](O)C=O [Fucose, 6-deoxy-L-galactose] |  | 58 µM and 58.2 µM | 0.98 ± 0.03 |  |
| lentinan | strongest affinity |  |  |  |
| curdlan | almost no affinity |  |  |  |
| pullulan | modest affinities |  |  |  |
| O=C(O)CN(CCN(CC(=O)O)CC(=O)O)CC(=O)O [EDTA] |  |  |  | Concentration at which MhPA14 eluted from Superdex S200 column (MhPA14 [4]): 3.5 mM |
| OC[C@H]1OC(O)[C@H](O)[C@@H](O)[C@@H]1O (stereo partly drawn) [Glucose, glucose] |  | 137 µM | 1.01 ± 0.14 | Concentration at which MhPA14 eluted from Superdex S200 column (MhPA14 [4]): 25 mM |
| O=C[C@H](O)[C@@H](O)[C@@H](O)[C@H](O)CO [Galactose] |  |  | 1.00 | Kd (MhPA14 [3]; Kd): > 1000 µM; Kd (MhPA14 [3]; Kd, fucose and glucose are averages of triplicate runs): 1540 µM; Kd (EpA1): 115 µM |
| O=CC[C@@H](O)[C@H](O)[C@H](O)CO [2-deoxy-D-glucose] |  | 228 µM | 0.86 |  |
